In ChEMBL document CHEMBL1155194, “Synthesis and characterization of environment-sensitive fluorescent ligands for human 5-HT1A receptors with 1-arylpiperazine structure” (J Med Chem, 2009) one finds Ki data, which are given here for twelve compounds.

This experiment addresses T1, 5-hydroxytryptamine receptor 1A (Homo sapiens, UniProt P08908).
T1 sequence (P08908 whole entry): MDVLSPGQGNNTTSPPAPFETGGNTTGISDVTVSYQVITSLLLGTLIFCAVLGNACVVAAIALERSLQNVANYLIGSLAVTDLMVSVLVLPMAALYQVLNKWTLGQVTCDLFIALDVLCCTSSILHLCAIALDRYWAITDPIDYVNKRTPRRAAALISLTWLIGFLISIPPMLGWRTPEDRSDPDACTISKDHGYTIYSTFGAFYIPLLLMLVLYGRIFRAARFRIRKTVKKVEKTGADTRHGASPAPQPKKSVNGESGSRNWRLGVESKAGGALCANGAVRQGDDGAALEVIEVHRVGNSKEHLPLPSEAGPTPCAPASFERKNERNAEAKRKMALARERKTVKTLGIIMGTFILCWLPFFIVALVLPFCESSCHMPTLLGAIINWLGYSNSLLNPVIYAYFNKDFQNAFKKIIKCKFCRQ
In words: biochemical.
Description: Displacement of [3H]8-OH-DPAT from human recombinant 5HT1A receptor expressed in HEK293 cells after 120 mins
For orientation: Ki means the equilibrium dissociation constant of an inhibitor or competing ligand from its target. Lower therefore signals higher affinity. `COc1ccccc1N1CCN(CCCN2C(=O)c3cccc4c(N)ccc(c34)C2=O)CC1` displayed a Ki of 116 nM. As to `COc1ccccc1N1CCN(CCN2C(=O)c3ccc(N(C)C)cc3C2=O)CC1`, affinity was put at a Ki of 15 nM. The compound `COc1ccccc1N1CCN(CCCN2C(=O)c3ccc(N(C)C)cc3C2=O)CC1` returned a Ki of 0.47 nM. The compound `COc1ccccc1N1CCN(CCCCCN2C(=O)c3ccc(N(C)C)cc3C2=O)CC1` showed a Ki of 7.8 nM.

On to `COc1ccccc1N1CCN(CCNS(=O)(=O)c2cccc3c(N(C)C)cccc23)CC1`, for which the Ki worked out at 73 nM. This Ki lies about 9.4-fold higher than the previous one. In the case of `COc1ccccc1N1CCN(CCCCN2C(=O)c3cccc4c(N)ccc(c34)C2=O)CC1`, the inhibition constant (Ki) amounted to 6.8 nM. Turning to `COc1ccccc1N1CCN(CCCNS(=O)(=O)c2cccc3c(N(C)C)cccc23)CC1`, the Ki stood at 29 nM. Turning to `COc1ccccc1N1CCN(CCCCNS(=O)(=O)c2cccc3c(N(C)C)cccc23)CC1`, the affinity, expressed as Ki, was 151 nM. This Ki is about 5.2-fold higher than that of the compound before. For the compound `COc1ccccc1N1CCN(CCCCCNS(=O)(=O)c2cccc3c(N(C)C)cccc23)CC1`, the affinity corresponds to a Ki of 54 nM. The figure for `COc1ccccc1N1CCN(CCCCCN2C(=O)c3cccc4c(N)ccc(c34)C2=O)CC1` is 0.67 nM.

As to `COc1ccccc1N1CCN(CCN2C(=O)c3cccc4c(N)ccc(c34)C2=O)CC1`, affinity was put at a Ki of 44 nM. This Ki lies about 66-fold higher than the previous one.

The compound `COc1ccccc1N1CCN(CCCCN2C(=O)c3ccc(N(C)C)cc3C2=O)CC1` had a Ki of 0.5 nM.
